Measurements reported in PubChem BioAssay (NCI).
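Values below derive from 48-hour exposures of cells grown in 96-well plates, with endpoints linearly interpolated between the two concentrations bracketing the appropriate inhibition level. Definition used: TGI = concentration required for complete inhibition of growth.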

How the values were obtained:
Test in all cases: NCI tumour cell line growth inhibition, 48 h
HL-60(TB) leukemia = system: HL-60(TB) leukemia
M19-MEL melanoma = system: M19-MEL melanoma
NCI-H226 lung = system: NCI-H226 lung
SNB-78 CNS = system: SNB-78 CNS
ACHN renal = system: ACHN renal
KM20L2 colon = system: KM20L2 colon
786-0 renal = system: 786-0 renal
SK-OV-3 ovarian = system: SK-OV-3 ovarian
IGROV1 ovarian = system: IGROV1 ovarian
SF-539 CNS = system: SF-539 CNS
M14 melanoma = system: M14 melanoma
DMS 273 small cell lung = system: DMS 273 small cell lung
LXFL 529 NSCLC = system: LXFL 529 NSCLC
UACC-62 melanoma = system: UACC-62 melanoma
CCRF-CEM leukemia = system: CCRF-CEM leukemia
COLO 205 colon = system: COLO 205 colon
NCI-H460 lung = system: NCI-H460 lung
HCC-2998 colon = system: HCC-2998 colon
MALME-3M melanoma = system: MALME-3M melanoma
XF 498 CNS = system: XF 498 CNS
SF-268 CNS = system: SF-268 CNS
KM12 colon = system: KM12 colon
SF-295 CNS = system: SF-295 CNS
SK-MEL-28 melanoma = system: SK-MEL-28 melanoma
UO-31 renal = system: UO-31 renal
HOP-62 NSCLC = system: HOP-62 NSCLC
OVCAR-4 ovarian = system: OVCAR-4 ovarian
MOLT-4 leukemia = system: MOLT-4 leukemia
HT29 colon = system: HT29 colon
SK-MEL-5 melanoma = system: SK-MEL-5 melanoma
OVCAR-3 ovarian = system: OVCAR-3 ovarian
NCI-H522 lung = system: NCI-H522 lung
NCI-H23 lung = system: NCI-H23 lung
SK-MEL-2 melanoma = system: SK-MEL-2 melanoma
DLD-1 colon = system: DLD-1 colon
LOX IMVI melanoma = system: LOX IMVI melanoma
SN12C renal = system: SN12C renal
UACC-257 melanoma = system: UACC-257 melanoma
A549 NSCLC = system: A549 NSCLC
RXF 393 renal = system: RXF 393 renal
OVCAR-8 ovarian = system: OVCAR-8 ovarian
TK-10 renal = system: TK-10 renal
SNB-75 CNS = system: SNB-75 CNS
HCT-15 colon = system: HCT-15 colon
HOP-92 NSCLC = system: HOP-92 NSCLC
SW-620 colon = system: SW-620 colon
SNB-19 CNS = system: SNB-19 CNS
HCT-116 colon = system: HCT-116 colon
EKVX NSCLC = system: EKVX NSCLC
U251 CNS = system: U251 CNS
K-562 leukemia = system: K-562 leukemia
SR leukemia = system: SR leukemia
T-47D breast = system: T-47D breast
MCF7 breast = system: MCF7 breast
NCI/ADR-RES ovarian = system: NCI/ADR-RES ovarian
PC-3 prostate = system: PC-3 prostate
CAKI-1 renal = system: CAKI-1 renal
MDA-MB-231 breast = system: MDA-MB-231 breast
A498 renal = system: A498 renal
RPMI-8226 leukemia = system: RPMI-8226 leukemia
OVCAR-5 ovarian = system: OVCAR-5 ovarian
MDA-MB-435 = system: MDA-MB-435
MDA-N = system: MDA-N
DU-145 prostate = system: DU-145 prostate
HS 578T breast = system: HS 578T breast
BT-549 breast = system: BT-549 breast
HOP-18 NSCLC = system: HOP-18 NSCLC

`CCCCOP1(=O)CC(C)=C(Cl)C(C)(OC)C1` (configuration not stated) was tested, and the TGI (HL-60(TB) leukemia) was 69 µM, the TGI (M19-MEL melanoma) was > 100 µM and the TGI (NCI-H226 lung) was > 100 µM. For the same compound, the TGI (SNB-78 CNS) was > 100 µM, the TGI (ACHN renal) was > 100 µM and the TGI (KM20L2 colon) was > 100 µM. The TGI (786-0 renal) was > 100 µM, the TGI (SK-OV-3 ovarian) was > 100 µM and the TGI (IGROV1 ovarian) was > 100 µM. For the same compound, the TGI (SF-539 CNS) was > 100 µM, the TGI (M14 melanoma) was > 100 µM and the TGI (DMS 273 small cell lung) was > 100 µM. The TGI (LXFL 529 NSCLC) was > 100 µM, the TGI (UACC-62 melanoma) was > 100 µM and the TGI (CCRF-CEM leukemia) was 98.7 µM. For the same compound, the TGI (COLO 205 colon) was > 100 µM, the TGI (NCI-H460 lung) was > 100 µM and the TGI (HCC-2998 colon) was > 100 µM. The TGI (MALME-3M melanoma) was > 100 µM, the TGI (XF 498 CNS) was > 100 µM and the TGI (SF-268 CNS) was > 100 µM. The TGI (KM12 colon) was > 100 µM, the TGI (SF-295 CNS) was > 100 µM and the TGI (SK-MEL-28 melanoma) was > 100 µM. For the same compound, the TGI (UO-31 renal) was > 100 µM, the TGI (HOP-62 NSCLC) was > 100 µM and the TGI (OVCAR-4 ovarian) was > 100 µM. For the same compound, the TGI (MOLT-4 leukemia) was > 100 µM, the TGI (HT29 colon) was > 100 µM and the TGI (SK-MEL-5 melanoma) was > 100 µM. The TGI (OVCAR-3 ovarian) was > 100 µM, the TGI (NCI-H522 lung) was > 100 µM and the TGI (NCI-H23 lung) was > 100 µM. For the same compound, the TGI (SK-MEL-2 melanoma) was > 100 µM, the TGI (DLD-1 colon) was > 100 µM and the TGI (LOX IMVI melanoma) was > 100 µM. For the same compound, the TGI (SN12C renal) was > 100 µM, the TGI (UACC-257 melanoma) was > 100 µM and the TGI (A549 NSCLC) was > 100 µM. The TGI (RXF 393 renal) was > 100 µM, the TGI (OVCAR-8 ovarian) was > 100 µM and the TGI (TK-10 renal) was > 100 µM. The TGI (SNB-75 CNS) was > 100 µM, the TGI (HCT-15 colon) was > 100 µM and the TGI (HOP-92 NSCLC) was > 100 µM. For the same compound, the TGI (SW-620 colon) was > 100 µM, the TGI (SNB-19 CNS) was > 100 µM and the TGI (HCT-116 colon) was > 100 µM. For the same compound, the TGI (EKVX NSCLC) was > 100 µM, the TGI (U251 CNS) was > 100 µM and the TGI (K-562 leukemia) was > 100 µM. It also gave a TGI (SR leukemia) of 89.3 µM.
With `COc1ccc(/N=N/C(=NNC(=O)c2ccc(C)cc2)c2ccc(N(C)C)cc2)cc1` the TGI (HL-60(TB) leukemia) was > 67.7 µM, the TGI (NCI-H226 lung) was > 100 µM and the TGI (T-47D breast) was > 33.8 µM. For the same compound, the TGI (ACHN renal) was > 89.9 µM, the TGI (786-0 renal) was > 100 µM and the TGI (SK-OV-3 ovarian) was > 100 µM. The TGI (IGROV1 ovarian) was > 100 µM, the TGI (SF-539 CNS) was > 100 µM and the TGI (M14 melanoma) was > 100 µM. For the same compound, the TGI (MCF7 breast) was 56.1 µM, the TGI (NCI/ADR-RES ovarian) was > 100 µM and the TGI (UACC-62 melanoma) was > 83.1 µM. The TGI (CCRF-CEM leukemia) was > 100 µM, the TGI (PC-3 prostate) was > 100 µM and the TGI (COLO 205 colon) was > 85.8 µM. The TGI (NCI-H460 lung) was > 100 µM, the TGI (CAKI-1 renal) was > 100 µM and the TGI (HCC-2998 colon) was 98.4 µM. For the same compound, the TGI (MALME-3M melanoma) was 94.6 µM, the TGI (SF-268 CNS) was > 100 µM and the TGI (KM12 colon) was > 100 µM. For the same compound, the TGI (SF-295 CNS) was > 100 µM, the TGI (SK-MEL-28 melanoma) was > 100 µM and the TGI (MDA-MB-231 breast) was > 100 µM. The TGI (UO-31 renal) was > 100 µM, the TGI (HOP-62 NSCLC) was > 100 µM and the TGI (OVCAR-4 ovarian) was > 100 µM. For the same compound, the TGI (MOLT-4 leukemia) was > 72.5 µM, the TGI (HT29 colon) was > 89.8 µM and the TGI (SK-MEL-5 melanoma) was > 95.3 µM. For the same compound, the TGI (OVCAR-3 ovarian) was > 79.4 µM, the TGI (NCI-H522 lung) was 97.9 µM and the TGI (NCI-H23 lung) was > 100 µM. For the same compound, the TGI (SK-MEL-2 melanoma) was > 100 µM, the TGI (LOX IMVI melanoma) was > 100 µM and the TGI (A498 renal) was > 100 µM. For the same compound, the TGI (SN12C renal) was > 100 µM, the TGI (UACC-257 melanoma) was > 91.4 µM and the TGI (RPMI-8226 leukemia) was > 70.9 µM. For the same compound, the TGI (A549 NSCLC) was > 100 µM, the TGI (OVCAR-5 ovarian) was > 100 µM and the TGI (MDA-MB-435) was 62.7 µM. For the same compound, the TGI (RXF 393 renal) was > 100 µM, the TGI (OVCAR-8 ovarian) was > 100 µM and the TGI (MDA-N) was > 73.4 µM. The TGI (DU-145 prostate) was > 72.7 µM, the TGI (TK-10 renal) was > 100 µM and the TGI (SNB-75 CNS) was > 100 µM. The TGI (HS 578T breast) was > 100 µM, the TGI (HCT-15 colon) was > 100 µM and the TGI (HOP-92 NSCLC) was > 100 µM. For the same compound, the TGI (SW-620 colon) was > 100 µM, the TGI (SNB-19 CNS) was > 100 µM and the TGI (HCT-116 colon) was > 100 µM. For the same compound, the TGI (EKVX NSCLC) was > 100 µM, the TGI (U251 CNS) was > 100 µM and the TGI (BT-549 breast) was 82.9 µM. For the same compound, the TGI (K-562 leukemia) was > 100 µM and the TGI (SR leukemia) was 88.7 µM.
For `CSc1nc(-c2ccccc2)nc(=[N+]2CCOCC2)s1`, the TGI (HL-60(TB) leukemia) was > 100 µM, the TGI (M19-MEL melanoma) was > 100 µM and the TGI (NCI-H226 lung) was > 100 µM. For the same compound, the TGI (SNB-78 CNS) was > 100 µM, the TGI (ACHN renal) was > 100 µM and the TGI (KM20L2 colon) was > 100 µM. The TGI (786-0 renal) was > 100 µM, the TGI (SK-OV-3 ovarian) was > 100 µM and the TGI (IGROV1 ovarian) was > 100 µM. For the same compound, the TGI (SF-539 CNS) was > 100 µM, the TGI (M14 melanoma) was > 100 µM and the TGI (DMS 273 small cell lung) was > 100 µM. For the same compound, the TGI (LXFL 529 NSCLC) was > 100 µM, the TGI (UACC-62 melanoma) was > 100 µM and the TGI (CCRF-CEM leukemia) was 62.6 µM. For the same compound, the TGI (COLO 205 colon) was 98.7 µM, the TGI (NCI-H460 lung) was > 100 µM and the TGI (HCC-2998 colon) was > 100 µM. For the same compound, the TGI (MALME-3M melanoma) was > 100 µM, the TGI (HOP-18 NSCLC) was > 100 µM and the TGI (SF-268 CNS) was > 100 µM. For the same compound, the TGI (KM12 colon) was > 100 µM, the TGI (SK-MEL-28 melanoma) was > 100 µM and the TGI (UO-31 renal) was > 100 µM. For the same compound, the TGI (HOP-62 NSCLC) was > 100 µM, the TGI (OVCAR-4 ovarian) was > 100 µM and the TGI (MOLT-4 leukemia) was > 100 µM. The TGI (HT29 colon) was > 100 µM, the TGI (SK-MEL-5 melanoma) was > 100 µM and the TGI (OVCAR-3 ovarian) was > 100 µM. For the same compound, the TGI (NCI-H522 lung) was 84.1 µM, the TGI (NCI-H23 lung) was > 100 µM and the TGI (SK-MEL-2 melanoma) was > 100 µM. The TGI (DLD-1 colon) was > 100 µM, the TGI (LOX IMVI melanoma) was > 100 µM and the TGI (A498 renal) was > 100 µM. The TGI (SN12C renal) was > 100 µM, the TGI (A549 NSCLC) was > 100 µM and the TGI (OVCAR-5 ovarian) was > 100 µM. The TGI (RXF 393 renal) was > 100 µM, the TGI (OVCAR-8 ovarian) was > 100 µM and the TGI (TK-10 renal) was > 100 µM. The TGI (SNB-75 CNS) was > 100 µM, the TGI (HCT-15 colon) was > 100 µM and the TGI (SW-620 colon) was > 100 µM. For the same compound, the TGI (SNB-19 CNS) was > 100 µM, the TGI (HCT-116 colon) was > 100 µM and the TGI (EKVX NSCLC) was > 100 µM. The TGI (U251 CNS) was > 100 µM, the TGI (K-562 leukemia) was > 100 µM and the TGI (SR leukemia) was 67.5 µM.
